Data taken from ChEMBL document CHEMBL6083215, “Structure elucidation, absolute configuration, and biological evaluation of cyclic peroxides from the sponge Plakinastrella sp” (2024).

What was measured:
Format in all cases: functional
BT-549 = assay: Growth inhibition of human BT-549 cells
Hs-578T = assay: Growth inhibition of human HS 578T cells
MCF7 = assay: Growth inhibition of human MCF7 cells
MDA-MB-231 = assay: Growth inhibition of human MDA-MB-231 cells
MDA-MB-468 = assay: Growth inhibition of human MDA-MB-468 cells
T47D = assay: Growth inhibition of human T47D cells
SF-268 = assay: Growth inhibition of human SF-268 cells
SF-295 = assay: Growth inhibition of human SF-295 cells
SF-539 = assay: Growth inhibition of human SF-539 cells
SNB-19 = assay: Growth inhibition of human SNB-19 cells
SNB-75 = assay: Growth inhibition of human SNB-75 cells
U-251 = assay: Growth inhibition of human U-251 cells
COLO 205 = assay: Growth inhibition of human COLO 205 cells
HCC 2998 = assay: Growth inhibition of human HCC 2998 cells
HCT-116 = assay: Growth inhibition of human HCT-116 cells
HCT-15 = assay: Growth inhibition of human HCT-15 cells
HT-29 = assay: Growth inhibition of human HT-29 cells
KM12 = assay: Growth inhibition of human KM12 cells
SW-620 = assay: Growth inhibition of human SW620 cells
786-0 = assay: Growth inhibition of human 786-0 cells
A498 = assay: Growth inhibition of human A498 cells
ACHN = assay: Growth inhibition of human ACHN cells
CAKI-1 = assay: Growth inhibition of human CAKI-1 cells
RXF 393 = assay: Growth inhibition of human RXF 393 cells
SN12C = assay: Growth inhibition of human SN12C cells
TK-10 = assay: Growth inhibition of human TK-10 cells
CCRF-CEM = assay: Growth inhibition of human CCRF-CEM cells
K562 = assay: Growth inhibition of human K562 cells
MOLT-4 = assay: Growth inhibition of human MOLT-4 cells
RPMI-8226 = assay: Growth inhibition of human RPMI-8226 cells
SR = assay: Growth inhibition of human SR cells
A549 = assay: Growth inhibition of human A549 cells
EKVX = assay: Growth inhibition of human EKVX cells
HOP-62 = assay: Growth inhibition of human HOP-62 cells
HOP-92 = assay: Growth inhibition of human HOP-92 cells
NCI-H226 = assay: Growth inhibition of human NCI-H226 cells
NCI-H23 = assay: Growth inhibition of human NCI-H23 cells
NCI-H322M = assay: Growth inhibition of human NCI-H322M cells
NCI-H460 = assay: Growth inhibition of human NCI-H460 cells
NCI-H522 = assay: Growth inhibition of human NCI-H522 cells
M14 = assay: Growth inhibition of human M14 cells
Malme-3M = assay: Growth inhibition of human Malme-3M cells
MDA-MB-435 = assay: Growth inhibition of human MDA-MB-435 cells
SK-MEL-2 = assay: Growth inhibition of human SK-MEL-2 cells
SK-MEL-28 = assay: Growth inhibition of human SK-MEL-28 cells
SK-MEL-5 = assay: Growth inhibition of human SK-MEL-5 cells
UACC-257 = assay: Growth inhibition of human UACC-257 cells
UACC-62 = assay: Growth inhibition of human UACC-62 cells
IGROV-1 = assay: Growth inhibition of human IGROV-1 cells
OVCAR-3 = assay: Growth inhibition of human OVCAR-3 cells
OVCAR-4 = assay: Growth inhibition of human OVCAR-4 cells
OVCAR-5 = assay: Growth inhibition of human OVCAR-5 cells
OVCAR-8 = assay: Growth inhibition of human OVCAR-8 cells
SK-OV-3 = assay: Growth inhibition of human SK-OV-3 cells
NCI/ADR-RES = assay: Growth inhibition of human NCI-ADR-RES cells
DU-145 = assay: Growth inhibition of human DU-145 cells
PC-3 = assay: Growth inhibition of human PC-3 cells
LOX IMVI = assay: Growth inhibition of human LOX IMVI cells
UO-31 = assay: Growth inhibition of human UO-31 cells
HL-60(TB) = assay: Growth inhibition of human HL-60(TB) cells

COc1cccc2c1C(=O)c1c(O)c3c(c(O)c1C2=O)C[C@@](O)(C(=O)CO)C[C@@H]3O[C@H]1C[C@H](N)[C@H](O)[C@H](C)O1 [DOXORUBICIN]
GI50 (BT-549): 120 nM
GI50 (Hs-578T): 120 nM
GI50 (MCF7): 120 nM
GI50 (MDA-MB-231): 120 nM
GI50 (MDA-MB-468): 120 nM
GI50 (T47D): 120 nM
GI50 (SF-268): 120 nM
GI50 (SF-295): 120 nM
GI50 (SF-539): 120 nM
GI50 (SNB-19): 120 nM
GI50 (SNB-75): 120 nM
GI50 (U-251): 120 nM
GI50 (COLO 205): 120 nM
GI50 (HCC 2998): 120 nM
GI50 (HCT-116): 120 nM
GI50 (HCT-15): 120 nM
GI50 (HT-29): 120 nM
GI50 (KM12): 120 nM
GI50 (SW-620): 120 nM
GI50 (786-0): 120 nM
GI50 (A498): 120 nM
GI50 (ACHN): 120 nM
GI50 (CAKI-1): 120 nM
GI50 (RXF 393): 120 nM
GI50 (SN12C): 120 nM
GI50 (TK-10): 120 nM
GI50 (CCRF-CEM): 120 nM
GI50 (K562): 120 nM
GI50 (MOLT-4): 120 nM
GI50 (RPMI-8226): 120 nM
GI50 (SR): 120 nM
GI50 (A549): 120 nM
GI50 (EKVX): 120 nM
GI50 (HOP-62): 120 nM
GI50 (HOP-92): 120 nM
GI50 (NCI-H226): 120 nM
GI50 (NCI-H23): 120 nM
GI50 (NCI-H322M): 120 nM
GI50 (NCI-H460): 120 nM
GI50 (NCI-H522): 120 nM
GI50 (M14): 120 nM
GI50 (Malme-3M): 120 nM
GI50 (MDA-MB-435): 120 nM
GI50 (SK-MEL-2): 120 nM
GI50 (SK-MEL-28): 120 nM
GI50 (SK-MEL-5): 120 nM
GI50 (UACC-257): 120 nM
GI50 (UACC-62): 120 nM
GI50 (IGROV-1): 120 nM
GI50 (OVCAR-3): 120 nM
GI50 (OVCAR-4): 120 nM
GI50 (OVCAR-5): 120 nM
GI50 (OVCAR-8): 120 nM
GI50 (SK-OV-3): 120 nM
GI50 (NCI/ADR-RES): 120 nM
GI50 (DU-145): 120 nM
GI50 (PC-3): 120 nM

CCCCCCCCC/C=C(/C)CC(C)(O)CC(C)C(O)CC(=O)OC (configuration not stated)
GI50 (BT-549): > 100000 nM
GI50 (Hs-578T): > 100000 nM
GI50 (LOX IMVI): > 100000 nM
GI50 (UO-31): > 100000 nM
GI50 (HL-60(TB)): > 100000 nM
GI50 (MCF7): > 100000 nM
GI50 (MDA-MB-231): > 100000 nM
GI50 (MDA-MB-468): > 100000 nM
GI50 (T47D): > 100000 nM
GI50 (SF-268): > 100000 nM
GI50 (SF-295): > 100000 nM
GI50 (SF-539): > 100000 nM
GI50 (SNB-19): > 100000 nM
GI50 (SNB-75): > 100000 nM
GI50 (U-251): > 100000 nM
GI50 (COLO 205): > 100000 nM
GI50 (HCC 2998): > 100000 nM
GI50 (HCT-116): > 100000 nM
GI50 (HCT-15): > 100000 nM
GI50 (HT-29): > 100000 nM
GI50 (KM12): > 100000 nM
GI50 (SW-620): > 100000 nM
GI50 (786-0): > 100000 nM
GI50 (A498): > 100000 nM
GI50 (ACHN): > 100000 nM
GI50 (CAKI-1): > 100000 nM
GI50 (RXF 393): > 100000 nM
GI50 (SN12C): > 100000 nM
GI50 (TK-10): > 100000 nM
GI50 (CCRF-CEM): > 100000 nM
GI50 (K562): > 100000 nM
GI50 (MOLT-4): > 100000 nM
GI50 (RPMI-8226): > 100000 nM
GI50 (SR): > 100000 nM
GI50 (A549): > 100000 nM
GI50 (EKVX): > 100000 nM
GI50 (HOP-62): > 100000 nM
GI50 (HOP-92): > 100000 nM
GI50 (NCI-H226): > 100000 nM
GI50 (NCI-H23): > 100000 nM
GI50 (NCI-H322M): > 100000 nM
GI50 (NCI-H460): > 100000 nM
GI50 (NCI-H522): > 100000 nM
GI50 (M14): > 100000 nM
GI50 (Malme-3M): > 100000 nM
GI50 (MDA-MB-435): > 100000 nM
GI50 (SK-MEL-2): > 100000 nM
GI50 (SK-MEL-28): > 100000 nM
GI50 (SK-MEL-5): > 100000 nM
GI50 (UACC-257): > 100000 nM
GI50 (UACC-62): > 100000 nM
GI50 (IGROV-1): > 100000 nM
GI50 (OVCAR-3): > 100000 nM
GI50 (OVCAR-4): > 100000 nM
GI50 (OVCAR-5): > 100000 nM
GI50 (OVCAR-8): > 100000 nM
GI50 (SK-OV-3): > 100000 nM
GI50 (NCI/ADR-RES): > 100000 nM
GI50 (DU-145): > 100000 nM
GI50 (PC-3): > 100000 nM

CCCCCCCCC/C=C(/C)C[C@]1(C)C[C@H](C)[C@@H](CC(=O)O)OO1
GI50 (BT-549): 980 nM
GI50 (Hs-578T): 980 nM
GI50 (LOX IMVI): 110 nM
GI50 (UO-31): 190 nM
GI50 (HL-60(TB)): 220 nM
GI50 (MCF7): 980 nM
GI50 (MDA-MB-231): 980 nM
GI50 (MDA-MB-468): 980 nM
GI50 (T47D): 980 nM
GI50 (SF-268): 980 nM
GI50 (SF-295): 980 nM
GI50 (SF-539): 980 nM
GI50 (SNB-19): 980 nM
GI50 (SNB-75): 980 nM
GI50 (U-251): 980 nM
GI50 (COLO 205): 980 nM
GI50 (HCC 2998): 980 nM
GI50 (HCT-116): 980 nM
GI50 (HCT-15): 980 nM
GI50 (HT-29): 980 nM
GI50 (KM12): 980 nM
GI50 (SW-620): 980 nM
GI50 (786-0): 980 nM
GI50 (A498): 980 nM
GI50 (ACHN): 980 nM
GI50 (CAKI-1): 980 nM
GI50 (RXF 393): 980 nM
GI50 (SN12C): 980 nM
GI50 (TK-10): 980 nM
GI50 (CCRF-CEM): 980 nM
GI50 (K562): 980 nM
GI50 (MOLT-4): 980 nM
GI50 (RPMI-8226): 980 nM
GI50 (SR): 980 nM
GI50 (A549): 980 nM
GI50 (EKVX): 980 nM
GI50 (HOP-62): 980 nM
GI50 (HOP-92): 980 nM
GI50 (NCI-H226): 980 nM
GI50 (NCI-H23): 980 nM
GI50 (NCI-H322M): 980 nM
GI50 (NCI-H460): 980 nM
GI50 (NCI-H522): 980 nM
GI50 (M14): 980 nM
GI50 (Malme-3M): 980 nM
GI50 (MDA-MB-435): 980 nM
GI50 (SK-MEL-2): 980 nM
GI50 (SK-MEL-28): 980 nM
GI50 (SK-MEL-5): 980 nM
GI50 (UACC-257): 980 nM
GI50 (UACC-62): 980 nM
GI50 (IGROV-1): 980 nM
GI50 (OVCAR-3): 980 nM
GI50 (OVCAR-4): 980 nM
GI50 (OVCAR-5): 980 nM
GI50 (OVCAR-8): 980 nM
GI50 (SK-OV-3): 980 nM
GI50 (NCI/ADR-RES): 980 nM
GI50 (DU-145): 980 nM
GI50 (PC-3): 980 nM
